Assay results from patent publication US10995358B2, “Rapid antibiotic susceptibility test using membrane fluorescence staining and spectral intensity ratio improved by flow cytometry dead to live population ratio” (POCARED Diagnostics LTD., priority 2017, dated 2021).

Key:
Format in all cases: cell-based
K. pneumonia = assay: Rapid AST/MIC from positive blood culture by FM 1-43 staining, flow cytometry and spectral intensity ratio (SIR); conditions: 2-4 hours antibiotic exposure
Procedure: (§1) In general, the method includes; blood culture centrifugation, bacterial antimicrobial exposure for 2 to 4 hours, bacteria staining with a single fluorescence dye followed by a flow cytometric measurement, and mathematical analysis.
(§2) 31 positive blood cultures were obtained from Sheba Medical Center (Ramat-Gan, Israel) and tested for antimicrobial susceptibility with gentamicin and ampicillin antibiotics (Sigma-Aldrich, USA). […] As a positive control, a tube with bacterial sample solution (a) without antimicrobial agent. • h) All tubes were incubated at 37° C. • i) 2-4 hours from incubation initiation, 200 μl from each tube were transferred into a fresh tube, dyed with 2 μl of Synaptogreen or FM 1-43 (Sigma-Aldrich; Molecular Probes, respectively) and measured by a flow cytometer. The rest of the sample was further incubated for 16-20 hours and then was visually evaluated for growth.
(§3) In order to quantify the influence of a certain antimicrobial exposure we define the spectral intensity ratio (SIR) as follows: […]
(§4) The MIC is calculated by plotting the spectral intensity ratio (SIR) as a function of the antimicrobial concentration and approximating it to a step function in the form of […]

[1] = test system: 31 positive blood cultures (E. coli, K. pneumonia, A. baummanii, P. mirabilis, E. cloacae, Aeromonass spp., K. oxytoca); assay: Macro dilution reference method, positive blood cultures (visual growth after 16-20 hours); conditions: 31 strains from positive blood cultures
Procedure: 31 positive blood cultures were obtained from Sheba Medical Center (Ramat-Gan, Israel) and tested for antimicrobial susceptibility with gentamicin and ampicillin antibiotics (Sigma-Aldrich, USA). A total of 62 positive blood samples-antibiotics combinations were tested. • a) Positive blood samples were received from Sheba Medical Center, 2 ml of each sample were centrifuged for 15 min at 24×g and Supernatants were diluted 1:1000 with Cation-Adjusted Mueller Hinton Broth (CAMHB). • b) Antimicrobial stock solutions were prepared according to CLSI recommendations, and were diluted in CAMHB, to a concentration which was 2 fold higher from the highest concentration recommended for each antimicrobial combination (“Class II Special Controls Guidance Document: Antimicrobial Susceptibility Test (AST) Systems”, Aug. 28, 2009, FDA). • c) For each sample/antimicrobial combination, a set of tubes was prepared for which 1 ml of CAMHB medium was added, except for the first tube. • d) To each first tube of the set, 2 ml from the antimicrobial stock solution (b) was dispensed. • e) From the first tube a serial dilutions of 2 folds were prepared by transferring 1 ml of the solution to the next tube until the lowest required concentration by CLSI. 1 ml was discarded from the last tube in each set of tubes. • f) To each tube in the set, 1 ml of bacterial sample solution (a) was added. • g) For each serial dilutions set, two controls were added. As a negative control, a tube with 2 ml of CAMHB. As a positive control, a tube with bacterial sample solution (a) without antimicrobial agent. • h) All tubes were incubated at 37° C. • i) 2-4 hours from incubation initiation, 200 μl from each tube were transferred into a fresh tube, dyed with 2 μl of Synaptogreen or FM 1-43 (Sigma-Aldrich; Molecular Probes, respectively) and measured by a flow cytometer. The rest of the sample was further incubated for 16-20 hours and then was visually evaluated for growth.
62 samples (31 positive blood cultures and 2 antibiotics combination) were analyzed in triplicates. Each sample was measured by the flow cytometer and the MIC was calculated using the spectral intensity ratio (SIR) calculation and step function estimation. The bacteria identified within the samples were; E. coli (15 samples), K. pneumonia (6 samples), A. baummanii (4 samples), P. mirabilis (2 samples), E. cloacae (2 samples), Aeromonass spp. (1 sample), and K. oxytoca (1 sample).
Tables 1 and 2 present the results of the positive blood sample experiment using the macro dilution as the reference method. […] There are no errors as defined by “Class II Special Controls Guidance Document: Antimicrobial Susceptibility Test (AST) Systems,” Aug. 28, 2009, FDA.

E. coli [2] = assay: Rapid AST/MIC from clinical isolates by FM 1-43 staining, flow cytometry and SIR; conditions: clinical isolate, 2-4 hours antibiotic treatment
Procedure: (§5) Our method includes bacterial antimicrobial treatment for 2 to 4 hours, bacteria staining with a single fluorescence dye followed by a flow cytometric measurement, and mathematical analysis. The following paragraphs describe the method in details.
(§6) A total of 90 isolates-antibiotics combinations were tested. • a) All strains were cultured onto 5% sheep blood agar (Hylabs, Israel), following overnight incubation, colonies were harvested and suspended in Phosphate Buffer Saline (PBS, Sigma-Aldrich). […] The rest of the sample was further incubated for 16-20 hours and then was visually evaluated for growth.
(§7) In order to quantify the influence of a certain antimicrobial treatment, we define the spectral intensity ratio (SIR) as follows: […]
(§8) The MIC is calculated by plotting the spectral intensity ratio (SIR) as a function of the antimicrobial concentration and approximating it to a step function in the form of
(§9) Where a, b, and c are parameters and erf is the error function. The parameters are used to approximate the measured SIR to a step function; a is a scaling parameter, b determines the step slope, and c is the MIC value. […]

C. freundii = assay: Rapid AST from clinical isolates by FM 1-43 staining, flow cytometry and SIR; conditions: clinical isolate, up to 32 μg/ml
Procedure: as §5, §6, §7, §8, §9

[3] = test system: 30 clinical isolates of E. coli, K. pneumoniae, E. cloacae, P. mirabilis, and C. freundii; assay: Macro dilution reference method, clinical isolates (visual growth after 16-20 hours)
Procedure: A total of 90 isolates-antibiotics combinations were tested. • a) All strains were cultured onto 5% sheep blood agar (Hylabs, Israel), following overnight incubation, colonies were harvested and suspended in Phosphate Buffer Saline (PBS, Sigma-Aldrich). […] 1 ml was discarded from the last tube in each set of tubes. • g) For each serial dilutions set, two controls were added. As a negative control, a tube with 2 ml of CAMHB. […] The rest of the sample was further incubated for 16-20 hours and then was visually evaluated for growth.

E. coli [4] = assay: Flow cytometry SIR/SDL dead/live analysis of FM1-43 stained bacteria under Gentamycin exposure; set-up: key to SIR: SIR = ratio of mean FL-3 (610 nm) to FL-1 (530 nm) fluorescence; conditions: for Dead % of This Plot / Live % of This Plot / SDL SIR * D/L / SIR: 120 minutes
Procedure: In this Example, E. coli bacteria samples were incubated with Gentamycin in series dilution from 0 to 32 μgr/ml for 120 minutes. Post incubation the samples were stained with the dye FM1-43 and immediately measured by flow cytometry analysis on light scatter analysis for gating the bacteria and with fluorescence filters: λ1=530/30 and λ2=616/16 nm to analyze the SIR. Moreover gating of the Dead and live bacteria were determined.
From such instant flow-cytometry analysis the SIR and SDL values are evaluated. While performing the same analysis over the whole antibiotic concentrations dilution series the SIR and SDL values were extracted to the concentration series, the data is summarized in Table 5. In Table 5, mean FL1-H and FL3-H is the average of the individual points in the bacteria gated population, i.e. of all measured bacteria. In other words, Fl-1 and FL-3 are merely the fluorescence intensity of each event (bacteria) per a certain fluorescence filter. By referring to FL-1 or FL-3 this means that the mean (average) values of all the events is calculated in the dot plot. FL-1 it is at 530 (±15) nm and FL-3 is at 610 (±10) nm. SIR, is the ratio of FL-3/FL-1. […] So, in order to obtain SIR all that is needed are the FL-3 and FL-1 mean values of the bacterial population in the dot plot. […] By using a predetermined gates, the number of dead and live bacteria can be counted, and then the ratio of dead to live can be calculated and multiplied by the SIR to obtain SDL. The gates are combination of FL-1 and FL-3 and predetermined by control live sample. Plotting SIR, SDL, and DL versus antibiotic concentration is represented in FIG. 15 as (labeled as “SIR”, “SDL”, and “DL”). In FIG. 15, SIR, SDL, and DL are all normalized to the maximum value in the series (column)/dataset and then to 100.
From the data, we can determine the MIC by approximating the MIC as a function of antimicrobial concentration to an error function (FIG. 16) of the following type;
The MIC is the value of the parameter c or a function of it. Specifically, the MIC gets the value of “c”. The value of “c” is the middle of the step in a regular step function of where the step function equals to zero when its values are normalized between −1 to 1.

E. coli [5] = assay: Micro dilution susceptibility test performed in parallel; conditions: after 12 hours of incubation
E. coli [6] = assay: Rapid AST from positive blood culture by FM 1-43 staining, flow cytometry and SIR; conditions: positive blood culture strain, 2-4 hours antibiotic exposure
Procedure: as §1, §2, §3, §4

[7] = 120 minutes incubation, FIG. 17A
[8] = 120 minutes incubation, FIG. 17B
[9] = Gentamycin 1 microg/ml (sub-MIC), listed as Gentamycin
[10] = Gentamycin 1 microg/ml (sub-MIC), listed as gentamycin
[11] = Gentamycin 8 microg/ml (over-MIC), listed as Gentamycin
[12] = Gentamycin 8 microg/ml (over-MIC), listed as gentamycin

gentamicin
MIC (SIR approximated to a step function) (K. pneumonia): 1 µg/mL
Reference Method Susceptibilities I (number of strains) [1]: 0
Reference Method Susceptibilities R (number of strains) [1]: 10
Reference Method Susceptibilities S (number of strains) [1]: 21
MIC (SIR approximated to a step function) (E. coli [2]): 2 µg/mL
susceptibility by SIR method (C. freundii): resistant
Reference Method Susceptibilities I (number of strains) [3]: 4
Reference Method Susceptibilities R (number of strains) [3]: 5
Reference Method Susceptibilities S (number of strains) [3]: 21
MIC from SIR error function fit (c rounded up to power of 2) (E. coli [4]; [7]): 8 μgr/ml
value of c, error function fit of measured SIR (E. coli [4]; [7]): 4.63 μgr/ml
MIC from SDL error function fit (c rounded up to power of 2) (E. coli [4]; [8]): 8 μgr/ml
value of c, error function fit of measured SDL (E. coli [4]; [8]): 5.38 μgr/ml
Dead % of This Plot (E. coli [4]; Gentamycin 0.25 microg/ml): 2.07%
Live % of This Plot (E. coli [4]; Gentamycin 0.25 microg/ml): 97.89%
SDL SIR * D/L (E. coli [4]; Gentamycin 0.25 microg/ml): 0.026
SIR (E. coli [4]; Gentamycin 0.25 microg/ml): 1.223
Dead % of This Plot (E. coli [4]; Gentamycin 0.5 microg/ml): 2.34%
Live % of This Plot (E. coli [4]; Gentamycin 0.5 microg/ml): 97.65%
SDL SIR * D/L (E. coli [4]; Gentamycin 0.5 microg/ml): 0.030
SIR (E. coli [4]; Gentamycin 0.5 microg/ml): 1.238
Dead % of This Plot (E. coli [4]; [9]): 4.64%
Live % of This Plot (E. coli [4]; [9]): 95.29%
Dead % of This Plot (E. coli [4]; [10]): 4.6%
Live % of This Plot (E. coli [4]; [10]): 95.2%
SDL SIR * D/L (E. coli [4]; Gentamycin 1 microg/ml): 0.070
SIR (E. coli [4]; Gentamycin 1 microg/ml): 1.437
Dead % of This Plot (E. coli [4]; Gentamycin 2 microg/ml): 6.46%
Live % of This Plot (E. coli [4]; Gentamycin 2 microg/ml): 93.52%
SDL SIR * D/L (E. coli [4]; Gentamycin 2 microg/ml): 0.099
SIR (E. coli [4]; Gentamycin 2 microg/ml): 1.426
Dead % of This Plot (E. coli [4]; Gentamycin 4 microg/ml): 9.86%
Live % of This Plot (E. coli [4]; Gentamycin 4 microg/ml): 90.09%
SDL SIR * D/L (E. coli [4]; Gentamycin 4 microg/ml): 0.188
SIR (E. coli [4]; Gentamycin 4 microg/ml): 1.718
Dead % of This Plot (E. coli [4]; [11]): 18.68%
Live % of This Plot (E. coli [4]; [11]): 81.28%
Dead % of This Plot (E. coli [4]; [12]): 18%
Live % of This Plot (E. coli [4]; [12]): 81%
SDL SIR * D/L (E. coli [4]; Gentamycin 8 microg/ml): 0.492
SIR (E. coli [4]; Gentamycin 8 microg/ml): 2.141
Dead % of This Plot (E. coli [4]; Gentamycin 16 microg/ml): 27.28%
Live % of This Plot (E. coli [4]; Gentamycin 16 microg/ml): 72.67%
SDL SIR * D/L (E. coli [4]; Gentamycin 16 microg/ml): 0.893
SIR (E. coli [4]; Gentamycin 16 microg/ml): 2.379
Dead % of This Plot (E. coli [4]; Gentamycin 32 microg/ml): 21.03%
Live % of This Plot (E. coli [4]; Gentamycin 32 microg/ml): 78.95%
SDL SIR * D/L (E. coli [4]; Gentamycin 32 microg/ml): 0.622
SIR (E. coli [4]; Gentamycin 32 microg/ml): 2.336
MIC, micro dilution susceptibility test (E. coli [5]): 8 μgr/ml

CC1(C)S[C@@H]2[C@H](NC(=O)[C@H](N)c3ccccc3)C(=O)N2[C@H]1C(=O)O [Ampicillin, ampicillin]
MIC (K. pneumonia; Klebsiella pneumoniae, read-out: MIC (SIR approximated to a step function)): 4 µg/mL
susceptibility by SIR method (E. coli [6]): resistant
Reference Method Susceptibilities I (number of strains) [1]: 0
Reference Method Susceptibilities R (number of strains) [1]: 26
Reference Method Susceptibilities S (number of strains) [1]: 5
Reference Method Susceptibilities I (number of strains) [3]: 5
Reference Method Susceptibilities R (number of strains) [3]: 9
Reference Method Susceptibilities S (number of strains) [3]: 16
